Reference: patent publication US7901893B2, “NPC1L1 (NPC3) and methods of identifying ligands thereof” (Merck Sharp & Dohme Corp., priority 2004, dated 2011)

Key:
[1] = test system: CHO background (no transfection); assay: Effect of ezetimibe on cholesterol uptake, CHO background; format: cell-based, chinese hamster; conditions: EZ (10 μM), CHO Control
Method: The effect of ezetimibe on the ability of CHO cells stably transfected with mouse or rat NPC1L1 or mouse SR-B1 to take up ^3H-labeled cholesterol was evaluated in pulse-chase experiments. One cDNA clone of mouse NPC1L1 (C7) and three clones of rat NPC1L1 (C7, C17 and C21) were evaluated. The ability of CHO cells stably transfected with mouse SR-B1, mouse NPC1L1 and rat NPC1L1 to take up labeled cholesterol, in the absence of ezetimibe, was also evaluated in the pulse-chase experiments. Data generated in these experiments are set forth, below, in Tables 4 and 5. Additionally, the quantity of total cholesterol taken up by transfected and untransfected CHO cells in the presence of four different unlabeled cholesterol concentrations was also evaluated.
Starve. The maintenance media (F12 HAMS, 1% Pen/Strep, 10% FCS) was removed and the cells were rinsed with serum-free HAMS media. The serum-free media was then replaced with 1 mL “starve” media (F12 HAMS, Pen/Strep, 5% lipoprotein deficient serum (LPDS). The cells were then starved overnight.
Pre-Incubation/pre-dose. Media was removed from all plates and replaced with fresh starve media and preincubated for 30 minutes. Half of the wells received media containing ezetimibe (stock soln in EtOH; final conc.=10 μM).
^3H-Cholesterol Pulse. The following was added directly to each well: • 0.5 μCi ^3H-cholesterol (˜1.1×10^6 dpm/well) in 50 μl of a mixed bile salt micelle • 4.8 mM sodium taurocholate (2.581 mg/mL) • 0.6 mM sodium oleate (0.183 mg/mL) • 0.25 mM cholesterol (0.1 mg/mL) • Dispersed in “starve” media by ultrasonic vibration • Final media cholesterol concentration=5 μg/mL
Labeled cholesterol pulse time points were 4, 12, 24 minutes and 4 hours. Triplicate wells were prepared for each treatment.
Wash. At designated times, media was aspirated and cells were washed once with Hobbs Buffer A (50 mM Tris, 0.9% NaCl, 0.2% bovine serum albumin (BSA), pH 7.4) and once with Hobbs Buffer B (50 mM Tris, 0.9% NaCl, pH 7.4 (no BSA)) at 37° C.
A. 4, 12, 24 minute time points: Cells were digested overnight with 0.2N NaOH, 2 mL/well, room temperature. One 1.5 mL aliquot was removed from each well, neutralized & counted for radioactivity by scintillation counting.
B. 4 hour time point: The digested cells were analyzed by thin-layer chromatography to determine the content of cholesterol ester in the cells.
Extracts were spotted onto TLC plates and run for 30 minutes in 2 ml hexane:isopropanol (3:2) mobile phase for 30 minutes, followed by a second run in 1 ml hexane:isopropanol (3:2) mobile phase for 15 minutes.
C. Protein determination of cell extracts. Plates containing a sample of the cell extracts were placed on orbital shaker at 120 rpm for indicated times and then extracts are pooled into 12×75 tubes. Plates were dried and NaOH (2 ml/well) added. The protein content of the samples were then determined. Two additional 50 μl aliquots from all wells were assayed for total protein by the Pierce micro BCA method. The quantity of labeled cholesterol observed in the cells was normalized to the quantity of protein in the cells.

[2] = test system: human, mouse or rat NPC1L1-CHO overexpressing membranes; assay: SPA assay; format: binding; conditions: 0.1 nM ligand
Method: For each well of a 96 well plate, a reaction mixture of 10 μg human, mouse or rat NPC1L1-CHO overexpressing membranes (Biosignal) and 200 μg/well YSi-WGA-SPA beads (Amersham) in 100 μl is prepared in NPC1L1 assay buffer (25 mM HEPES, pH 7.8, 2 mM CaCl2, 1 mM MgCl2, 125 mM NaCl, 0.1% BSA). A 0.4 nM stock of ligand-[^125I]-ezetimibe- is prepared in the NPC1L1 assay buffer. The above solutions are added to a 96-well assay plate as follows: 50 μl NPC1L1 assay buffer, 100 μl of reaction mixture, 50 μl of ligand stock (final ligand concentration is 0.1 nM). The assay plates are shaken for 5 minutes on a plate shaker, then incubated for 8 hours before cpm/well are determined in Microbeta Trilux counter (PerkinElmer).

[3] = test system: membrane preparations from cells expressing NPC1L1; assay: Preliminary binding studies with HEK-293 membrane preparations
Method: Transient expression of NPC1L1. Plasmid pCR3.1 expressing rat NPC1L1 (Genbank AY437867) or human NPC1L1 (Genbank AY437865) were prepared using standard molecular biology protocols. HEK-293 cells (ATCC) were seeded at 10×10^6 cells per T-225 flask (Corning) in DMEM containing 10% fetal calf serum, 4.5 g/L D-glucose and L-glutamine, 18 hours prior to transfection. They were transiently transfected with 25 μg of DNA using Fugene transfection reagent (Roche Biochemical) at a ratio of 6:1 Fugene:DNA. Following transfection, the cells were incubated at 37° C. and 5% CO2 for 48 hours, and then harvested using PBS based cell dissociation buffer (Gibco), pelleted at 500×g, snap frozen on dry ice, and stored at −80° C.
Membrane preparation from HEK-293 cells. Membranes were prepared by resuspending the frozen cell pellets in ten volumes of 20 mM HEPES/Tris buffer at pH 7.40 containing 8% sucrose, and sonicating the suspensions with a probe sonicator on ice until most of the cells were lysed. […]
Cell lysates from HEK-293 cells expressing NPC1L1 (Lanes 1 and 3 of Panel 1 FIG. 13) and wild-type cells (Lanes 2 and 4 of Panel 1 FIG. 13) were analyzed by gel electrophoresis and Western blot with an anti-NPC1L1 antibody A1801. […]

| Structure (SMILES) | Cholesteryl Ester, dpm ± sem ([1]; 4 Hour Pulse) [dpm] | Cholesteryl Ester, dpm/mg protein ± sem ([1]; 4 Hour Pulse) [dpm/mg protein] | Free Cholesterol, dpm ± sem ([1]; 4 Hour Pulse) [dpm] | Free Cholesterol, dpm/mg protein ± sem ([1]; 4 Hour Pulse) [dpm/mg protein] | Total Cholesterol, dpm ± sem ([1]; 4 Min Pulse) [dpm] | Total Cholesterol, dpm/mg protein ± sem ([1]; 4 Min Pulse) [dpm/mg protein] | Total Cholesterol, dpm ± sem ([1]; 12 Min Pulse) [dpm] | Total Cholesterol, dpm/mg protein ± sem ([1]; 12 Min Pulse) [dpm/mg protein] | Total Cholesterol, dpm ± sem ([1]; 24 Min Pulse) [dpm] | Total Cholesterol, dpm/mg protein ± sem ([1]; 24 Min Pulse) [dpm/mg protein] | binding to cell membranes expressing human, mouse or rat NPC1L1 [2] | binding to membrane preparations from cells expressing NPC1L1 [3] | binding to membranes from mock transfected cells [3] |
| --- | --- | --- | --- | --- | --- | --- | --- | --- | --- | --- | --- | --- | --- |
| O=C1[C@H](CC[C@H](O)c2ccc(F)cc2)[C@@H](c2ccc(O)cc2)N1c1ccc(F)cc1 [ezetimibe] | 208 ± 9 | 1902 ± 87 | 56792 ± 568 | 519607 ± 16203 | 3222 ± 26 | 31881 ± 483 | 4532 ± 165 | 43391 ± 1197 | 6678 ± 215 | 61764 ± 2131 | binds | – | – |
| O=C(O)[C@H]1O[C@@H](Oc2ccc([C@@H]3[C@@H](CC[C@H](O)c4ccc(F)cc4)C(=O)N3c3ccc(F)cc3)cc2)[C@H](O)[C@@H](O)[C@@H]1O [Compound 1, Ezetimibe glucuronide] | – | – | – | – | – | – | – | – | – | – | – | specific binding | no specific binding |
